Measured values reported in US7115592B2, “Phosphonate substituted pyrimidine compounds and methods for therapy” (priority 2003, dated 2006).
Values after ≈ are worked out from the molar mass of the structure shown. Marks after values point to notes of the source that are not given here.

Key:
[1] = tested on: MSV-induced tumor cell formation; assay: Inhibitory activity against MSV-induced tumor cell formation in newborn NMRI mice; format: in vivo; settings: for % survivors on day 12 / % tumor free on day 12 / Mean day of animal death / Mean day of tumor initiation: virus i.m. at day 1; for tumor formation: at 50 and 20 mg/kg; for order of antiviral efficacy: among the 5-cyano, 5-chloro and 5-methyl derivatives
Method: The 5-cyano (Example 8), 5-methyl (Example 5) and 5-chloro-2,4-diamino-6-[2-(phosphonomethoxy)ethoxy]pyrimidine were also evaluated for their antiretroviral activity in MSV-infected newborn NMRI mice in comparison with PMEA and (R)-PMPA. […] At 5 mg/kg, 90% of mice were free from tumor formation in the presence of 5-methyl derivative, compared with 70% and 10% in the presence of PMEA and (R)-PMPA. […] This phenomenon was also seen with PMEA at 50 and 20 mg/kg, but not with (R)-PMPA at 50 mg/kg.
Inhibitory activity of test compounds against MSV-induced tumor cell formation in newborn NMRI mice

[2] = tested on: HIV; assay: microbe, parasite or virus in culture; format: cell-based; settings: for EC50: Human immunodeficiency virus 1, HIV type not specified, read-out: inhibitory against HIV at
[3] = tested on: MSV; assay: Antiviral activity against MSV in cell culture; format: cell-based, murine (MSV); settings: Mus musculus; in vitro; read-out: inhibitory against MSV (EC50)
[4] = Cytostatic activity in CEM cell cultures; settings: human
[5] = tested on: HIV-1; assay: microbe, parasite or virus in culture; format: cell-based; settings: Human immunodeficiency virus 1; read-out: EC50 against HIV-1
[6] = tested on: HIV-2; assay: microbe, parasite or virus in culture; format: cell-based; settings: Human immunodeficiency virus 2; read-out: EC50 against HIV-2
[7] = tested on: VZV; assay: Anti-VZV activity; format: cell-based

Row | melting point | SMILES | Mean day of animal death ([1]; 5 mg/kg i.p. at days 1-5) [days] | Mean day of tumor initiation ([1]; 5 mg/kg i.p. at days 1-5) [days] | % survivors on day 12 ([1]; 20 mg/kg i.p. at days 1-5) | Mean day of animal death ([1]; 20 mg/kg i.p. at days 1-5) [days] | Mean day of tumor initiation ([1]; 20 mg/kg i.p. at days 1-5) [days] | Mean day of animal death ([1]; 50 mg/kg i.p. at days 1-5) | Mean day of tumor initiation ([1]; 50 mg/kg i.p. at days 1-5) [days] | further results
1 | – | C[C@H](Cn1cnc2c(N)ncnc21)OCP(=O)(O)O [(R)-PMPA] | > 12 | 10.5 ± 2.12 | 100% | > 12 | > 12 | > 12 days | > 12 | % survivors on day 12 ([1]; 5 mg/kg i.p. at days 1-5): 100%; % tumor free on day 12 ([1]; 5 mg/kg i.p. at days 1-5): 10%; % tumor free on day 12 ([1]; 20 mg/kg i.p. at days 1-5): 100%; % survivors on day 12 ([1]; 50 mg/kg i.p. at days 1-5): 100%; % tumor free on day 12 ([1]; 50 mg/kg i.p. at days 1-5): 100%; tumor formation [1]: completely prevented
2 | 255 to 256 °C | Nc1nc(N)c(C2CC2)c(OCCOCP(=O)(O)O)n1 | – | – | – | – | – | – | – | –
3 | 228 to 229 °C | Nc1nc(N)c(CC(=O)O)c(OCCOCP(=O)(O)O)n1 (hydrate or solvate) | – | – | – | – | – | – | – | –
4 | – | N#Cc1c(N)nc(N)nc1OCCOCP(=O)(O)O [Example 8, 5-Cyano-2,4-diamino-6-[2-(phosphonomethoxy)ethoxy]pyrimidine] | 10.9 ± 0.57 | 6.40 ± 0.70 | (60%) | 11.5 ± 0.58 | 7.20 ± 1.03 | > 12 days | 8.20 ± 1.62 | % survivors on day 12 ([1]; 50 mg/kg i.p. at days 1-5): 100%; order of antiviral efficacy [1]: least effective agent; EC50 [2]: 0.8 to 3.3 µg/mL (≈ 2.77 to 11.4 µM); EC50 [3]: 2.7 to 6 µg/mL (≈ 9.34 to 20.7 µM)
5 | – | Nc1nc(N)c(C=O)c(OCCOCP(=O)(O)O)n1 [Example 9, 5-Formyl-2,4-diamino-6-[2-(phosphonomethoxy)ethoxy]pyrimidine] | – | – | – | – | – | – | – | EC50 [2]: 0.8 to 3.3 µg/mL (≈ 2.74 to 11.3 µM); EC50 [3]: 2.7 to 6 µg/mL (≈ 9.24 to 20.5 µM)
6 | – | Nc1ncnc2c1ncn2CCOCP(=O)(O)O [PMEA, 9-(2-phosphonylmethoxyethyl)adenine] | > 12 | 9.33 ± 0.58 | 90% | 9.0 | > 12 | 8.80 ± 0.63^b day | > 12 | % survivors on day 12 ([1]; 5 mg/kg i.p. at days 1-5): 100%; % tumor free on day 12 ([1]; 5 mg/kg i.p. at days 1-5): 70%; % tumor free on day 12 ([1]; 20 mg/kg i.p. at days 1-5): 100%; % tumor free on day 12 ([1]; 50 mg/kg i.p. at days 1-5): 100%; tumor formation [1]: completely prevented; CC50 [4]: 11 µg/mL (≈ 40.3 µM)
7 | 230 to 231 °C | Nc1nc(N)c(-c2ccccc2)c(OCCOCP(=O)(O)O)n1 (hydrate or solvate) | – | – | – | – | – | – | – | –
8 | – | Nc1nc(N)c(Cl)c(OCCOCP(=O)(O)O)n1 [Example 5-Cl, 5-chloro-2,4-diamino-6-[2-(phosphonomethoxy)ethoxy]pyrimidine] | 11.5 ± 0.69 | 6.70 ± 0.80 | (80%) | 11.8 ± 0.50 | 7.44 ± 1.42 | > 12 days | 8.76 ± 1.86 | % survivors on day 12 ([1]; 5 mg/kg i.p. at days 1-5): (45%); % tumor free on day 12 ([1]; 20 mg/kg i.p. at days 1-5): 10%; % survivors on day 12 ([1]; 50 mg/kg i.p. at days 1-5): 100%; % tumor free on day 12 ([1]; 50 mg/kg i.p. at days 1-5): 15%
9 | 199 to 200 °C | CCOC(=O)Cc1c(N)nc(N)nc1OCCOCP(=O)(O)O | – | – | – | – | – | – | – | –
10 | 241 to 242 °C | Nc1nc(N)c(Cc2ccccc2)c(OCCOCP(=O)(O)O)n1 (hydrate or solvate) | – | – | – | – | – | – | – | –
11 | 258 to 259 °C (dec.) | N#CCc1c(N)nc(N)nc1OCCOCP(=O)(O)O | – | – | – | – | – | – | – | –
12 | – | Cc1c(N)nc(N)nc1OCCOCP(=O)(O)O [Example 5, 5-Methyl-2,4-diamino-6-[2-(phosphonomethoxy)ethoxy]pyrimidine] | > 12 | 8.0 | 100% | > 12 | > 12 | 10.1 ± 1.10^b day | > 12 | % survivors on day 12 ([1]; 5 mg/kg i.p. at days 1-5): 100%; % tumor free on day 12 ([1]; 5 mg/kg i.p. at days 1-5): 90%; % tumor free on day 12 ([1]; 20 mg/kg i.p. at days 1-5): 100%; % tumor free on day 12 ([1]; 50 mg/kg i.p. at days 1-5): 100%; Mean day of animal death ([1]; 50 mg/kg i.p. at days 1-5, listed as 5-methyl-2,4-diamino-6-[2-(phosphonomethoxy)ethoxy]pyrimidine): 10.1 days; order of antiviral efficacy [1]: most effective agent; tumor formation [1]: completely prevented; EC50 [5]: 0.065 µg/mL (≈ 0.234 µM); EC50 [6]: 0.065 µg/mL (≈ 0.234 µM); EC50 [3]: 0.04 to 0.06 µg/mL (≈ 0.144 to 0.216 µM); anti-VZV activity [7]: moderate anti-VZV activity; CC50 [4]: 1.3 to 4.1 µg/mL (≈ 4.67 to 14.7 µM)
13 | – | Nc1cc(OCCOCP(=O)(O)O)nc(N)n1 [5-unsubstituted compound, 2,4-diamino-6-[2-(phosphonomethoxy)ethoxy]pyrimidine, reference compound] | – | – | – | – | – | – | – | anti-HIV activity less potent than anti-MSV activity ([2]; ratio of anti-HIV to anti-MSV potency): 20 fold

Row | SMILES | melting point | Mean day of animal death ([1]; 5 mg/kg i.p. at days 1-5) [days] | Mean day of tumor initiation ([1]; 5 mg/kg i.p. at days 1-5) [days] | % survivors on day 12 ([1]; 20 mg/kg i.p. at days 1-5) | Mean day of animal death ([1]; 20 mg/kg i.p. at days 1-5) [days] | Mean day of tumor initiation ([1]; 20 mg/kg i.p. at days 1-5) [days] | Mean day of animal death ([1]; 50 mg/kg i.p. at days 1-5) | Mean day of tumor initiation ([1]; 50 mg/kg i.p. at days 1-5) [days] | further results
14 | Nc1nc(N)c(C=O)c(OCCOCP(=O)(O)O)n1 (hydrate or solvate) [Example 9, 5-Formyl-2,4-diamino-6-[2-(phosphonomethoxy)ethoxy]pyrimidine] | 225 to 227 °C | – | – | – | – | – | – | – | –
